The record followed here is patent EP2848286A1, “Cosmetic composition comprising chicoric acid” (DSM IP Assets B.V., priority 2013, dated 2015).

The test system of this assay is C3H10 T1/2 cells. In words: Adipocyte differentiation / automated determination of lipid accumulation in adipocytes. Format: cell-based. To be noted: Mus musculus, C3H 10T1/2, 168 h, 50 micromolar chicoric acid, differentiated C3H10 T1/2 adipocytes, 7 days in DM-Supplemented (200nM Insulin, 10µM Rosiglitazone). As for the experimental part: C3H10 T1/2 cells were seeded on Collagen Type I coated 24-well plates at a cell density of 3.8x10^4 cells/mL in Differentiation Base medium (DM-Base), containing DMEM without Phenol Red, supplemented with 10% FCS, 4mM L-Glutamine and 1% Pen/Strep (v/v) at 37° C in an incubator with 5% CO2 atmosphere and 85%-90% relative humidity over 72hours. After this pre-incubation, DM-Base is replaced by DM-Supplemented, containing DM-Base plus 200nM Insulin, plus 10µM Rosiglitazone. Test compounds (e.g.: chicoric acid) were added in DM-Supplemented, and kept in culture for 7 consecutive days. Each experiment was performed in triplicates. Every second day medium and compounds were renewed.
Cells were fixed by adding 1mL of 60% 2-Propanot in PBS to each well and incubated for 1.5h at 4°C. The cells were then twice washed with 1mL PBS/well. […]
Lipid droplets were quantified with the Cellomics® Array Scan® VTI HCS Reader. Fat droplets were detected with the provided SpotDetector® Bio-Application. The fluorescent dye, BODIPY® 493/503, was used to visualise and quantify fat droplets (number, area, intensity) in differentiated C3H10 T1/2 adipocytes. […] Channel one (Ch1) applies the XF93-Hoechst filter and is the focus channel in which objects (nuclei) are identified, whereas the spots (fat droplets) are detected in channel two (Ch2) using a XF93-FITC filter.

Read-outs that look alike come from different tables or passages of the source.

For `O=C(/C=C/c1ccc(O)c(O)c1)O[C@H](C(=O)O)[C@H](OC(=O)/C=C/c1ccc(O)c(O)c1)C(=O)O` (stereo in doubt) [chicoric acid, Chicoric acid], the inhibition at 50 µM came to 69% (read-out: decrease in the average number of lipid droplets per adipocyte) and 42% (read-out: decrease in the average size of the lipid droplets in adipocytes).
